In publication PMC8321095, “Species-Specific Effects of Cation Channel TRPM4 Small-Molecule Inhibitors” (Frontiers in Pharmacology, 2021):
Values belong to the compound of their own block, whether it stands above or below them.

Tests used:
Format in all cases: cell-based
human TRPM4 = molecular target: T1, human TRPM4 (Homo sapiens, UniProt Q8TD43); assay: Inside-out patch clamp on TsA-201 cells stably expressing human TRPM4; conditions: 300 μM calcium, +100 mV
T1 construct: expressed in transfected cells
Method: (§1) They were kept at 37°C with 5% CO2 in a humidified atmosphere incubator.
Electrophysiological recordings were performed in the inside-out patch-clamp configuration with patch pipettes (1 and 2 μm tip opening) pulled from 1.5 mm borosilicate glass capillaries (Zeitz-Instruments GmbH, München, Germany) using micropipette puller P 97 (Sutter Instruments, Novato, CA, United States). The tips were polished to have a pipette resistance of 2–4 MΩ in the bath solution. The pipette solution contained (in mM) 150 NaCl, 10 HEPES, and 2 CaCl2 (pH 7.4 with NaOH). The bath solution contained (in mM) 150 NaCl, 10 HEPES, 2 HEDTA (pH 7.4 with NaOH), and no Ca^2+. […] The I-V relationships (IV curves) have been determined using an I-V protocol from −100 mV to +100 mV for 500 ms with a difference of 20 mV between each sweep (cf. Figure 6). […]
Electrophysiology data were analysed using IGOR PRO 6 (WaveMetrics, Lake Oswego, United States), Normalized current percentage inhibition was calculated as follows ([activated current at 300 μM calcium]—[activated current at 300 μM calcium with compound]) * 100/[activated current at 300 µM calcium]. […] Data are presented as mean ± SEM except for Figures 3 and 7, where the data have been normalised to 100 for the current recorded in the presence of 300 µM calcium only. […]

TsA-201 cells = assay: Cytotoxicity test (trypan blue cell counting); conditions: Homo sapiens, tsA201, 24 h, read-out: EC50, concentration of the inhibitor required to induce 50% of cell death
Method: Untransfected TsA-201 cells were seeded in a 96-wells plate at a concentration of 10,000 cells per well with DMEM and incubated at 37°C and 5% CO2 in a humidified atmosphere incubator overnight. […] After incubation, the cells were washed and incubated in 0.01% trypsin-EDTA until the cellular layer was completely detached. Cells were centrifuged down, and the pellet resuspended in 1 ml PBS. Cells were then diluted in 1 part of 0.4% trypan blue and 1-part cell suspension. This mixture was incubated for 3 min at room temperature. Finally, the unstained (viable) and stained (nonviable) cells were counted in the haemocytometer (BRAND® counting chamber BLAUBRAND®, Wertheim, Germany).

mouse TRPM4 = molecular target: T2, mouse TRPM4 (Mus musculus, UniProt Q7TN37); assay: Inside-out patch clamp on TsA-201 cells stably expressing mouse TRPM4; conditions: for effect of CBA- and NBA-derived compounds on mouse TRPM4 current: 10 μM, applied intracellularly, n ≥ 6
T2 construct: expressed in transfected cells
Method: as §1
Electrophysiological recordings were performed in the inside-out patch-clamp configuration with patch pipettes (1 and 2 μm tip opening) pulled from 1.5 mm borosilicate glass capillaries (Zeitz-Instruments GmbH, München, Germany) using micropipette puller P 97 (Sutter Instruments, Novato, CA, United States). The tips were polished to have a pipette resistance of 2–4 MΩ in the bath solution. The pipette solution contained (in mM) 150 NaCl, 10 HEPES, and 2 CaCl2 (pH 7.4 with NaOH). The bath solution contained (in mM) 150 NaCl, 10 HEPES, 2 HEDTA (pH 7.4 with NaOH), and no Ca^2+. […] Bath solution with 0 and 300 μM Ca^2+ concentrations were applied to cells by a modified rapid solution exchanger (Perfusion Fast-Step SF-77B; Warner Instruments Corp. CT, United States). […] Data were low-pass filtered at 5 kHz and sampled at 10 kHz. Experiments were performed at room temperature (20–25°C). The holding potential was 0 mV. For measuring steady-state currents, the stimulation protocol consisted of two sweeps with a total duration of 1,000 ms, the first sweep at −100 mV for 500 ms and the second at +100 mV for 500 ms (Figure 2). […] The I-V relationships (IV curves) have been determined using an I-V protocol from −100 mV to +100 mV for 500 ms with a difference of 20 mV between each sweep (cf. Figure 6). The IV curves have been normalised to the maximum current. No fit was applied.
After obtaining inside-out membrane patches, the presence of TRPM4 in the patch membrane was confirmed by switching the perfusion solution without calcium at the intracellular side of the membrane to a solution containing 300 μM calcium, which activates TRPM4 and triggers the current. Once the TRPM4 currents were activated and stabilised for intracellular compound application, the perfusion solution containing 300 μM calcium and either the compound or free adenosine triphosphate (ATP) was applied. For extracellular application, the compounds were added to the […] (pipette) solution.
Electrophysiology data were analysed using IGOR PRO 6 (WaveMetrics, Lake Oswego, United States), Normalized current percentage inhibition was calculated as follows ([activated current at 300 μM calcium]—[activated current at 300 μM calcium with compound]) * 100/[activated current at 300 µM calcium]. Concentration-response curves were fitted using the Hill equation fit parameter of IGOR (NC = NCmax [Cmpd]nH/([Cmpd]nH + EC50 nH)) where NC is normalized current [Cmpd] is compound concentration and nH is the Hill coefficient. Data are presented as mean ± SEM except for Figures 3 and 7, where the data have been normalised to 100 for the current recorded in the presence of 300 µM calcium only. Statistically significant differences conditions were determined using a non-parametric test with a Mann-Whitney post-test.

[1] = bath solution, 300 μM calcium, +100 mV

T2 sequence (Q7TN37 whole entry): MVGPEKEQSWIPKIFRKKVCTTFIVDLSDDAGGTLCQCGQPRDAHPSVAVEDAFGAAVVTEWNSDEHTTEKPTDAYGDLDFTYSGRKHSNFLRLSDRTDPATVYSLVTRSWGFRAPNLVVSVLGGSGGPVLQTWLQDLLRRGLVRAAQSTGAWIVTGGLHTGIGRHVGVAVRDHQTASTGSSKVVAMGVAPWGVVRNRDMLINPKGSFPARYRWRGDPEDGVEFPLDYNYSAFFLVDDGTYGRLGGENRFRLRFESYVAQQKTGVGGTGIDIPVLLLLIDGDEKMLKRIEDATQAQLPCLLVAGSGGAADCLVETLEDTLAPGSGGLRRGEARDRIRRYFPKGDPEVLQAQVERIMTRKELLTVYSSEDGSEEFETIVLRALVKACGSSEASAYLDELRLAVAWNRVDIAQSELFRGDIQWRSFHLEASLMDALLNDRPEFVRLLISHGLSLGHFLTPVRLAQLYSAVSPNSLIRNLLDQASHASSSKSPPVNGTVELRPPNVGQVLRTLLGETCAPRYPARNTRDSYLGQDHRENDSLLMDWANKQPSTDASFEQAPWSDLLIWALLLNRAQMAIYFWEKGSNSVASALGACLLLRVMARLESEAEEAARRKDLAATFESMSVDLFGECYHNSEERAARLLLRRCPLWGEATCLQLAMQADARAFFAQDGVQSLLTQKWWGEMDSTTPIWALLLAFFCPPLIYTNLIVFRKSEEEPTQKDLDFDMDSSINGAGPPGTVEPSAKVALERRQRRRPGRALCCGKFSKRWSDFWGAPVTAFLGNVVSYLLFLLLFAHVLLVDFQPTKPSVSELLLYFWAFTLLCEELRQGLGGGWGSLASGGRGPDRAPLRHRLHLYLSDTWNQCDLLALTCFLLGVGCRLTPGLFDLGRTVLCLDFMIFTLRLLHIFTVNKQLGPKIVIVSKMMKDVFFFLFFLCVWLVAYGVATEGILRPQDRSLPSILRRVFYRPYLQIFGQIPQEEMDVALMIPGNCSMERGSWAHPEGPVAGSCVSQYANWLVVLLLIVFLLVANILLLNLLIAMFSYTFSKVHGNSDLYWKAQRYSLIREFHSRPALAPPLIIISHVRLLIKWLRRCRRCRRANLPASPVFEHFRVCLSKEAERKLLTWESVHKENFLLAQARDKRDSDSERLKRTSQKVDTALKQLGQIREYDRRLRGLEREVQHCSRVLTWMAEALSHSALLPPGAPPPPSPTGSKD
T1 sequence (Q8TD43 whole entry): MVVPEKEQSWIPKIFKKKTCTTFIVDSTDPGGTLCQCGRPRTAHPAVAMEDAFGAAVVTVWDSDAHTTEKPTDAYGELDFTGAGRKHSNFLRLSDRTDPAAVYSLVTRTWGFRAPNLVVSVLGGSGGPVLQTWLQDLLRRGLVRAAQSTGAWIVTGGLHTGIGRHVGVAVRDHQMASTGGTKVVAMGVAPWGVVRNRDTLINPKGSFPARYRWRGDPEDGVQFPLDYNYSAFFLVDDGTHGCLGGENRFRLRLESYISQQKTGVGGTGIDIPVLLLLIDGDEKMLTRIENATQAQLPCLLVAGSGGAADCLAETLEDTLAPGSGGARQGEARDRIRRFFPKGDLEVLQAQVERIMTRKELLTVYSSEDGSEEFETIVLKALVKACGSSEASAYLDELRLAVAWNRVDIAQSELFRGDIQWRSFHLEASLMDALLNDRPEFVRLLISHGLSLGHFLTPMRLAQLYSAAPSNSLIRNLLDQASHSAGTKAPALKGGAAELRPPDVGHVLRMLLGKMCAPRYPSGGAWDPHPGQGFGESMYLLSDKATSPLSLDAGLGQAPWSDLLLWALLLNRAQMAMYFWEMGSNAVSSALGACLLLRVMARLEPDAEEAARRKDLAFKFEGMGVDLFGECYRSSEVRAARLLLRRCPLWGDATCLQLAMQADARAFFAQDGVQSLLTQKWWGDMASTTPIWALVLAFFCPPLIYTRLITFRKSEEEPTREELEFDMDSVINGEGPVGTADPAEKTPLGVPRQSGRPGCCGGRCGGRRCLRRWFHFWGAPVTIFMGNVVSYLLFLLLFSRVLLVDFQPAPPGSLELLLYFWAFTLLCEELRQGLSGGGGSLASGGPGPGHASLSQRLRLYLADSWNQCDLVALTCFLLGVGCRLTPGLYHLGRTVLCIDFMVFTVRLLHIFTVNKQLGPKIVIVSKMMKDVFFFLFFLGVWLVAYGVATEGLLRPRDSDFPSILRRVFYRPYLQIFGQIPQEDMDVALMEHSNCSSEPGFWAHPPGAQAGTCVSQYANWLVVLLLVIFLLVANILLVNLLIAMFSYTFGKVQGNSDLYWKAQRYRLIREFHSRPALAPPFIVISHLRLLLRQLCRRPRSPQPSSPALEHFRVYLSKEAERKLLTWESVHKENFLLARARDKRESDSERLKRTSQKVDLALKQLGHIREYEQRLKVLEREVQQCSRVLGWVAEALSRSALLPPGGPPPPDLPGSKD

SMILES: Oc1cc2ccccc2c2ccccc12 [9-phenanthrol]
effect on human TRPM4 sodium current (human TRPM4; 30 μM, extracellular or intracellular application): inhibited human TRPM4 sodium current with a similar efficacy independently of the application side | EC50 (TsA-201 cells): ~20000 nM | concentration dependence of potentiation of mouse TRPM4 current (mouse TRPM4; 0.1 μM versus 100 μM, intracellular application, n = 6): more pronounced with low concentrations | effect on mouse TRPM4 current, intracellular application (mouse TRPM4; 30 μM in bath solution, 300 μM calcium, +100 mV): increased the current | effect on mouse TRPM4 current, extracellular application (mouse TRPM4; 30 μM in pipette solution, 300 μM calcium, +100 mV): decreased the mouse TRPM4 current | calcium dependence of the increase of mouse TRPM4 current (mouse TRPM4; 30 μM, intracellular application, with or without 300 μM calcium): observed only in the presence of 300 μM calcium

SMILES: Nc1ncnc2c1ncn2[C@@H]1O[C@H](COP(=O)(O)OP(=O)(O)OP(=O)(O)O)[C@@H](O)[C@H]1O [ATP, adenosine triphosphate]
IC50 (human TRPM4; inside-out patch, bath solution, Hill fit, n = 6, read-out: IC50 on human TRPM4 current, intracellular application): 800 nM | IC50 (mouse TRPM4; inside-out patch, bath solution, 300 μM calcium, +100 mV, Hill fit, n = 6, read-out: IC50 on mouse TRPM4 current, intracellular application): 1400 nM

SMILES: Cc1cc(Cl)ccc1OC(C)C(=O)Nc1cc(Cl)ccc1C(=O)O (centres unmarked) [CBA-d1]
effect of CBA- and NBA-derived compounds on mouse TRPM4 current (mouse TRPM4; [1]): did not decrease the mouse TRPM4 currents

Now from value to compound:

effect of CBA- and NBA-derived compounds on mouse TRPM4 current (mouse TRPM4; [1]): could inhibit mouse TRPM4 currents
SMILES: O=C(COc1ccc(Cl)c2ccccc12)Nc1cc(Cl)ccc1C(=O)O [NBA-d1, 4-chloro-2-(2-((4-chloronaphthalen-1-yl)oxy)acetamido) benzoic acid]

effect of CBA- and NBA-derived compounds on mouse TRPM4 current (mouse TRPM4; [1]): could inhibit mouse TRPM4 currents
SMILES: O=C(COc1cccc2c1CCCC2)Nc1cc(Cl)ccc1C(=O)O [NBA-d2, 4-chloro-2-(2-((5,6,7,8-tetrahydronaphthalen-1-yl)oxy)acetamido) benzoic acid]
